Source: US20230079045A1 (priority 2019, published 2023)

Legend:
Assay type in all cases: cell-based, influenza virus
IFVA/Mal/302/54 = assay: cytopathic effect (CPE) antiviral test in MDCK cells, IFVA/Mal/302/54; conditions: unidentified influenza virus, MDCK, 120 h, read-out: EC50(IFVA/Mal/302/54), MDCK cells, CPE method, CCK-8 cell viability, 5 days
IFVA/Weiss/43 = assay: cytopathic effect (CPE) antiviral test in MDCK cells, IFVA/Weiss/43; conditions: unidentified influenza virus, MDCK, 120 h, read-out: EC50(IFVA/Weiss/43), MDCK cells, CPE method, CCK-8 cell viability, 5 days
IFV A/PR/8/34 = assay: cytopathic effect (CPE) antiviral test in MDCK cells, IFV A/PR/8/34; conditions: unidentified influenza virus, PR/8, MDCK, 120 h, read-out: EC50(IFV A/PR/8/34)

## O=C(Nc1ccc2oc(-c3ccnc(C(=O)N4CCN(C(c5ccccc5)c5nnn(C(F)F)n5)CC4)c3)nc2c1)C1CC1 (stereo not drawn) [Compound 36, N-(2-(2-(4-((2-(difluoromethyl)-2H-tetrazol-5-yl)(phenyl)methyl)piperazine-1-carbonyl)pyridin-4-yl)benzo[d]oxazol-5-yl)cyclopropanecarboxamide]
IFVA/Mal/302/54
  EC50: 10 nM
IFVA/Weiss/43
  EC50: 4 nM
IFV A/PR/8/34
  EC50: 17 nM

## O=C(c1cc(-c2nc3cc(-c4cnsc4)ccc3o2)ccn1)N1CCN(C(c2ccccc2)c2nnn(C(F)F)n2)CC1 (racemic) [Compound 101, (R/S)-(4-((2-(difluoromethyl)-2H-tetrazol-5-yl)(phenyl)methyl)piperazin-1-yl)(4-(5-(isothiazol-4-yl)benzo[d]oxazol-2-yl)pyridin-2-yl)methanone]
IFVA/Mal/302/54
  EC50: 6 nM
IFVA/Weiss/43
  EC50: 4 nM
IFV A/PR/8/34
  EC50: 27 nM

## Cn1ccnc1-c1ccc2oc(-c3ccnc(C(=O)N4CCN(C(c5ccccc5)c5nnn(C(F)F)n5)CC4)c3)nc2c1 (stereo not drawn) [Compound 72, (4-((2-(difluoromethyl)-2H-tetrazol-5-yl)(phenyl)methyl)piperazin-1-yl)(4-(5-(1-methyl-1H-imidazol-2-yl)benzo[d]oxazol-2-yl)pyridin-2-yl)methanone]
IFVA/Mal/302/54
  EC50: 4 nM
IFVA/Weiss/43
  EC50: 4 nM
IFV A/PR/8/34
  EC50: 4 nM

## CC(=O)Nc1ccc2oc(-c3ccnc(C(=O)C4CCN(C(c5ccccc5)c5nnn(C(F)F)n5)CC4)c3)nc2c1 (racemic) [Compound 42, (R/S)—N-(2-(2-(1-((2-(difluoromethyl)-2H-tetrazol-5-yl)(phenyl)methyl)piperidine-4-carbonyl)pyridin-4-yl)benzo[d]oxazol-5-yl)acetamide]
IFVA/Mal/302/54
  EC50: 10 nM
IFVA/Weiss/43
  EC50: 20 nM
IFV A/PR/8/34
  EC50: 20 nM

## O=C(c1cc(-c2nc3cc(-c4cnccn4)ccc3o2)ccn1)N1CCN(C(c2ccccc2)c2nnn(C(F)F)n2)CC1 (racemic) [Compound 112, (R/S)-(4-((2-(difluoromethyl)-2H-tetrazol-5-yl)(phenyl)methyl)piperazin-1-yl)(4-(5-(pyrazin-2-yl)benzo[d]oxazol-2-yl)pyridin-2-yl)methanone]
IFVA/Mal/302/54
  EC50: 8 nM
IFVA/Weiss/43
  EC50: 11 nM
IFV A/PR/8/34
  EC50: 36 nM

## Cn1cc(-c2ccc3oc(-c4ccnc(C(=O)N5CCN(C(c6ccccc6)c6nnn(C(F)F)n6)CC5)c4)nc3c2)cn1 (racemic) [Compound 105, (R/S)-(4-((2-(difluoromethyl)-2H-tetrazol-5-yl)(phenyl)methyl)piperazin-1-yl)(4-(5-(1-methyl-1H-pyrazol-4-yl)benzo[d]oxazol-2-yl)pyridin-2-yl)methanone]
IFVA/Mal/302/54
  EC50: 9 nM
IFVA/Weiss/43
  EC50: 7 nM
IFV A/PR/8/34
  EC50: 11 nM
